Reference: ChEMBL document CHEMBL5518183, “Broad-spectrum antiviral strategy: Host-targeting antivirals against emerging and re-emerging viruses” (Eur J Med Chem, 2024)
Converted amounts (≈) assume the structure as drawn. Counter-ions that a name gives are not always drawn.

Tests used:
West Nile virus [1] = experiment: Antiviral activity against West Nile virus infected in African green monkey Vero cells assessed as inhibition of virus induced cytopathic effect incubated for 48 hrs by MTS assay; type: functional, organism-based
MT4 = experiment: Cytotoxicity against human MT4 cells assessed as reduction in cell viability incubated for 72 hrs by celltiter glo assay; type: functional
Chikungunya virus = experiment: Antiviral activity against CHIKV infected in Vero 76 cells assessed as reduction in cytopathic effect; type: functional, organism-based
Monkeypox virus = experiment: Antiviral activity against Monkeypox virus V79-1-005 infected in Vero cells assessed as reduction in viral replication measured after 4 days by colorimetric assay; type: functional, organism-based; details: V79-1-005, Vero, 96 h
SARS-CoV-2 [2] = experiment: Antiviral activity against SARS-CoV-2 infected in African green monkey Vero cells assessed as reduction in viral replication incubated for 24 hrs by Immunofluorescence assay; type: functional, organism-based; details: Severe acute respiratory syndrome coronavirus 2, Vero
SARS-CoV-2 [3] = experiment: Antiviral activity against SARS-CoV-2 B.1.1.7 infected in human Calu-3 cells assessed as inhibition of viral infection measured after 48 hrs by Hoechst 33342 staining based analysis; type: functional, organism-based; details: Severe acute respiratory syndrome coronavirus 2, B.1.1.7, Calu-3, 48 h
SARS-CoV-2 [4] = experiment: Antiviral activity against SARS-CoV-2 […] B.1.351 Beta infected in human Calu-3 cells assessed as reduction of viral growth measured after 48 hrs by luciferase assay; type: functional, organism-based; details: Severe acute respiratory syndrome coronavirus 2
[5] = tested on: Human immunodeficiency virus 1; experiment: Antiviral activity against HIV1 infected in H9 cells assessed as reduction in viral replication; type: functional, organism-based; details: Human immunodeficiency virus 1, H9
[6] = tested on: Western equine encephalitis virus; experiment: Antiviral activity against Western equine encephalomyelitis virus infected in African green monkey Vero cells assessed as reduction in cytopathic effect; type: functional
West Nile virus [7] = experiment: Antiviral activity against West Nile virus infected in African green monkey Vero 76 cells assessed as reduction in cytopathic effect; type: functional
[8] = tested on: Vesicular stomatitis virus; experiment: Antiviral activity against Vesicular stomatitis virus infected in human A549 cells assessed as reduction in virus replication; type: functional
[9] = Cytotoxicity against African green monkey Vero cells assessed as reduction in cell growth incubated for 72 hrs by MTT assay; type: toxicity, cell-based; details: chlorocebus sabaeus
Yellow fever virus = experiment: Antiviral activity against Yellow fever virus African green monkey Vero cells assessed as reduction in cytopathic effect; type: functional
Hepatitis B virus = experiment: Antiviral activity against HBV genotype A infected in human HepG2 cells assessed as inhibition of viral replication; type: functional, organism-based
H9 = experiment: Antitumor activity against human H9 cells assessed as cell growth inhibition; type: functional, cell-based
SARS-CoV-2 [10] = experiment: Antiviral activity against SARS-CoV-2 infected in […] Vero cells assessed as reduction in viral replication incubated for 24 hrs by Immunofluorescence assay; type: functional, organism-based; details: Severe acute respiratory syndrome coronavirus 2, Vero
[11] = tested on: Middle East respiratory syndrome-related coronavirus; experiment: Antiviral activity against MERS-CoV infected in human Calu-3 cells assessed as inhibition of viral growth; type: functional, organism-based
SARS-CoV-2 [12] = experiment: Antiviral activity against SARS-CoV-2 infected in African green monkey Vero E6 cells assessed as inhibition of virus growth; type: functional, organism-based; details: Severe acute respiratory syndrome coronavirus 2, Vero C1008
Hepatitis C virus = experiment: Antiviral activity against HCV infected in human Huh-7 cells assessed as reduction in viral infection; type: functional, organism-based, Hepacivirus hominis
[13] = molecular target: Virion infectivity factor (Human immunodeficiency virus type 1 group M subtype B (isolate NY5)(HIV-1), UniProt P12504); experiment: Inhibition of HIV1 Vif; design: species or system Human immunodeficiency virus 1
Virion infectivity factor, sequence (P12504 1-150 limits assumed): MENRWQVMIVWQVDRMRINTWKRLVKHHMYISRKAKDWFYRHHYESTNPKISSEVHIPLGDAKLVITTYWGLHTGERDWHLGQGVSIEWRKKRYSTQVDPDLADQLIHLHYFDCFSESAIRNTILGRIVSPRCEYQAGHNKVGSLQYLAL
Virion infectivity factor, sequence (P12504 151-192 limits assumed): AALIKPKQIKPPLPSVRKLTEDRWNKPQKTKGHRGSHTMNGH

SARS-CoV-2 [14] = experiment: Antiviral activity against SARS-CoV-2 infected in African green monkey Vero E6 cells assessed as reduction in viral replication incubated for 24 hrs by Immunofluorescence assay; type: functional, organism-based; details: Severe acute respiratory syndrome coronavirus 2, Vero C1008, 24 h

Cc1oncc1C(=O)Nc1ccc(C(F)(F)F)cc1 [LEFLUNOMIDE]
EC50 (West Nile virus [1]): 35000 nM
CC50 (MT4): 178000 nM

COc1cc2c(cc1C(=O)Nc1ccc(C(C)(C)C#N)cc1)CCCCC2
EC50 (Chikungunya virus): 270 nM

CC[C@H](CC#N)OC(=O)N[C@@H](C)c1cccc(NC(=O)Nc2ccc(-c3cnco3)c(OC)c2)c1 [AVN-944]
EC50 (Monkeypox virus): 34.5 nM

CC[C@H](C)[C@H]1NC(=O)[C@@H](NC(=O)[C@@H](CC(C)C)N(C)C(=O)[C@@H]2CCCN2C(=O)C(C)=O)[C@@H](C)OC(=O)[C@H](Cc2ccc(OC)cc2)N(C)C(=O)[C@@H]2CCCN2C(=O)[C@H](CC(C)C)NC(=O)[C@@H](C)C(=O)[C@H](C(C)C)OC(=O)C[C@@H]1O [PLITIDEPSIN]
EC50 (SARS-CoV-2 [2]): 0.7 nM

CS(=O)(=O)N[C@@H](CCC(N)=O)C(=O)N[C@@H](Cc1ccccc1)C(=O)N[C@@H](CCCNC(=N)N)C(=O)c1nc2ccccc2s1
IC50 (SARS-CoV-2 [3]): 1.9 nM
IC50 (SARS-CoV-2 [4]): 1.9 nM

COc1ccccc1NC(=O)c1ccccc1Sc1ccc([N+](=O)[O-])cc1
EC50 [5]: 6000 nM

COC(=O)c1c(-c2c(Cl)cccc2Cl)noc1-c1cnn(-c2cccc(Cl)c2)c1C(F)(F)F
EC90 [6]: 33.8 nM
EC90 (West Nile virus [7]): 0.31 nM
EC90 [8]: 38.7 nM
CC50 at 72 h [9]: 5000 nM
EC90 (Yellow fever virus): 12.8 nM

C/C=C/C[C@@H](C)[C@@H](O)[C@H]1C(=O)N[C@@H](CC)C(=O)N(C)CC(=O)N(C)[C@@H](CC(C)C)C(=O)N[C@@H](C(C)C)C(=O)N(C)[C@@H](CC(C)C)C(=O)N[C@@H](C)C(=O)N[C@H](C)C(=O)N(C)[C@@H](CC(C)C)C(=O)N(C)[C@@H](CC(C)C)C(=O)N(C)[C@@H](C(C)C)C(=O)N1C [CYCLOSPORINE]
IC50 (Hepatitis B virus): 5780 nM

CCN(CC)S(=O)(=O)c1ccc(OC)c(NC(=O)Cc2ccccc2[N+](=O)[O-])c1
IC50 (H9): > 100000 nM
EC50 [5]: 25000 nM

N=C(N)Nc1ccc(C(=O)Oc2ccc3cc(C(=N)N)ccc3c2)cc1 [NAFAMOSTAT MESYLATE]
EC50 (SARS-CoV-2 [10]): 5 nM
EC50 [11]: 5.9 nM
EC50 (SARS-CoV-2 [12]): 1.4 nM

C/C=C/C[C@@H](C)[C@@H](O)[C@H]1C(=O)N[C@@H](CC)C(=O)N(C)C(C)C(=O)N(CC)[C@@H](CC(C)C)C(=O)N[C@@H](C(C)C)C(=O)N(C)[C@@H](CC(C)C)C(=O)N[C@@H](C)C(=O)N[C@H](C)C(=O)N(C)[C@@H](CC(C)C)C(=O)N(C)[C@@H](CC(C)C)C(=O)N(C)[C@@H](C(C)C)C(=O)N1C (some centres not stated)
EC50 (Hepatitis C virus): 0.27 µg/mL (≈ 0.219 µM)

CCOC(=O)c1cc(C(=O)c2ccc3ccccc3c2)n2ccc(C(=O)c3ccncc3)cc12
IC50 [13]: 11000 nM

CONC(=O)[C@H]1[C@@H](O)[C@@]2(O)c3c(OC)cc(OC)cc3O[C@@]2(c2ccc(OC)cc2)[C@@H]1c1ccccc1
EC50 (SARS-CoV-2 [14]): 1.82 nM
